Data taken from US20090111778A1, “2-Keto-Oxazoles as Modulators of Fatty Acid Amide Hydrolase” (priority 2005, published 2009).
Structures can show the parent of a compound that is named as a salt.

Experiments:
[1] = biological target: T1, human FAAH (Homo sapiens, UniProt O00519); assay: Assay Method 1: FAAH assay, hydrolysis of 3H-anandamide by homogenate of SK-N-MC cells transfected with human FAAH; type: biochemical; details: human FAAH; T84 or transfected SK-N-MC cell homogenate; 3H-AEA tracer 80 nM; rt 1 h; pH 9; read-out: Assay 1 IC50
T1 construct: expressed in transfected cells
T1 sequence (O00519 1-579): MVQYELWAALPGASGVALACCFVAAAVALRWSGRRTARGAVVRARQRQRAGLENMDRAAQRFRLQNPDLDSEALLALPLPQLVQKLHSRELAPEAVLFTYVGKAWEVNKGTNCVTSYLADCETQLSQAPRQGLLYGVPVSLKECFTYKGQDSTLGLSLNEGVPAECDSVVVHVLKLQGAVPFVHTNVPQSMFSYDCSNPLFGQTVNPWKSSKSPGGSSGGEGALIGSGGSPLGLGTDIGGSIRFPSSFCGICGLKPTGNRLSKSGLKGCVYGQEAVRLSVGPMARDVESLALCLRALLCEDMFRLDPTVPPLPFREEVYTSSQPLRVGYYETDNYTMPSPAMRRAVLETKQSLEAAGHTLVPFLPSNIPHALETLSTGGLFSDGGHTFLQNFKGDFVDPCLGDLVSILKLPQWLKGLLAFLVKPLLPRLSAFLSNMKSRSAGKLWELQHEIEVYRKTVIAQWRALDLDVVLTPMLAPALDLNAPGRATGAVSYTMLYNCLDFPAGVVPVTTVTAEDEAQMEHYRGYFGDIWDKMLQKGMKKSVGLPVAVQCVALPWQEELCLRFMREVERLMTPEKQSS
Experimental: A. Transfection of Cells with Human FAAH
(§1) A 10-cm tissue culture dish with a confluent monolayer of SK-N-MC cells was split 2 days (d) prior to transfection. Using sterile technique, the media was removed and the cells were detached from the dish by the addition of trypsin. One fifth of the cells were then placed onto a new 10-cm dish. Cells were grown in a 37° C. incubator with 5% CO2 in Minimal Essential Media Eagle with 10% Fetal Bovine Serum. After 2 d, cells were approximately 80% confluent. These cells were removed from the dish with trypsin and pelleted in a clinical centrifuge. The pellet was re-suspended in 400 μL complete media and transferred to an electroporation cuvette with a 0.4 cm gap between the electrodes. Supercoiled human FAAH cDNA (1 μg) was added to the cells and mixed. The voltage for the electroporation was set at 0.25 kV, and the capacitance was set at 960 μF. After electroporation, the cells were diluted into complete media (10 mL) and plated onto four 10-cm dishes. Because of the variability in the efficiency of electroporation, four different concentrations of cells were plated. The ratios used were 1:20, 1:10, and 1:5, with the remainder of the cells being added to the fourth dish. The cells were allowed to recover for 24 h before adding the selection media (complete media with 600 μg/mL G418). After 10 d, dishes were analyzed for surviving colonies of cells. Dishes with well-isolated colonies were used. Cells from individual colonies were isolated and tested.
The assay mixture consisted of […] of the cell homogenate, 10 μL of the test compound, and 40 μL of anandamide [1-^3H-ethanolamine] (3H-AEA, Perkin-Elmer, 10.3 Ci/mmol), which was added last, for a final tracer concentration of 80 nM. The reaction mixture was incubated at rt for 1 h. During the incubation, 96-well Multiscreen filter plates (catalog number MAFCNOB50; Millipore, Bedford, Mass., USA) were loaded with 25 μL of activated charcoal (Multiscreen column loader, catalog number MACL09625, Millipore) and washed once with 100 μL of MeOH. Also during the incubation, 96-well DYNEX MicroLite plates (catalog number NL510410) were loaded with 100 μL of MicroScint40 (catalog number 6013641, Packard Bioscience, Meriden, Conn., USA). After the 1 h incubation, 60 μL of the reaction mixture were transferred to the charcoal plates, which were then assembled on top of the DYNEX plates using Centrifuge Alignment Frames (catalog number MACF09604, Millipore). The unbound labeled ethanolamine was centrifuged through to the bottom plate (5 min at 2000 rpm), which was preloaded with the scintillant, as described above. The plates were sealed and left at rt for 1 h before counting on a Hewlett Packard TopCount.

[2] = biological target: T2, rat FAAH (Rattus norvegicus, UniProt P97612); assay: Assay Method 2: FAAH assay, hydrolysis of 3H-anandamide by homogenate of SK-N-MC cells transfected with rat FAAH; type: biochemical; details: T84 or transfected SK-N-MC cell homogenate, 3H-AEA tracer 80 nM, rt 1 h, pH 9
T2 construct: expressed in transfected cells
T2 sequence (P97612 1-579): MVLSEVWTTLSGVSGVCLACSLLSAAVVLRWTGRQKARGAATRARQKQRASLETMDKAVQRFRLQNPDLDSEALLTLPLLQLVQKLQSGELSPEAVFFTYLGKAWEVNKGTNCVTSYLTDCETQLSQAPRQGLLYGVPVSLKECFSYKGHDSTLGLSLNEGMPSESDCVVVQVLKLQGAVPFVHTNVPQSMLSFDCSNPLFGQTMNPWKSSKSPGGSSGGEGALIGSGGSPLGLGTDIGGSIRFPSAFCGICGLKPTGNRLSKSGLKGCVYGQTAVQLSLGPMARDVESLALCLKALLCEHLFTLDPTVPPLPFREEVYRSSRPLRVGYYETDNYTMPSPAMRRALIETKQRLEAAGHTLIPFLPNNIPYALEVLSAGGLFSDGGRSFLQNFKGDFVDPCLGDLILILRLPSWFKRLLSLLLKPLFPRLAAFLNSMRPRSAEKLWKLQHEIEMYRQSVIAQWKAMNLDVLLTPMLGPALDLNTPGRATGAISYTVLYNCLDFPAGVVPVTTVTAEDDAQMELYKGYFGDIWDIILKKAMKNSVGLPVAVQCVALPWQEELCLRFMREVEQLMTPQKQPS
Experimental: as §1, with “A. Transfection of Cells with Rat FAAH A 10-cm” for “A 10-cm”, “electrodes. Supercoiled rat FAAH cDNA” for “electrodes. Supercoiled human FAAH cDNA”, “and tested. […] B. FAAH Assay […] The reaction mixture was incubated at rt for 1 h. During the incubation, 96-well Multiscreen filter plates (catalog number MAFCNOB50; Millipore, Bedford, Mass., USA) were loaded with 25 μL of activated charcoal (Multiscreen column loader, catalog number MACL09625, Millipore) and washed once with 100 μL of MeOH. Also during the incubation, 96-well DYNEX MicroLite plates (catalog number NL510410) were loaded with 100 μL of MicroScint40 (catalog number 6013641, Packard Bioscience, Meriden, Conn., USA). After the 1 h incubation, 60 μL of the reaction mixture were transferred to the charcoal plates, which were then assembled on top of the DYNEX plates using Centrifuge Alignment Frames (catalog number MACF09604, Millipore). The unbound labeled ethanolamine was centrifuged through to the bottom plate (5 min at 2000 rpm), which was preloaded with the scintillant, as described above. The plates were sealed and left at rt for 1 h before counting on a Hewlett Packard TopCount.” for “and tested.”

| SMILES | IC50 [1] | IC50 [2] |
| --- | --- | --- |
| COCCOC(=O)N1CCC(CCCC(=O)c2ncco2)CC1 [Example 65, 4-(4-Oxazol-2-yl-4-oxo-butyl)-piperidine-1-carboxylic acid 2-methoxy-ethyl ester] | 69 nM | 240 nM |
| O=C(CCCC1CCN(S(=O)(=O)c2ccc(Cl)c(Cl)c2)CC1)c1ncco1 [Example 62, 4-[1-(3,4-Dichloro-benzenesulfonyl)-piperidin-4-yl]-1-oxazol-2-yl-butan-1-one] | 14 nM | 110 nM |
| CC(C)(C)OC(=O)N1CCC(CCCC(=O)c2ncc(-c3ccco3)o2)CC1 [Example 120, 4-[4-(5-Furan-2-yl-oxazol-2-yl)-4-oxo-butyl]-Piperidine-1-carboxylic acid tert-butyl ester] | 2 nM | 21 nM |
| O=C(CCCC1CCN(Cc2ccc(-n3ccnc3)cc2)CC1)c1ncco1 [Example 141, 4-[1-(4-Imidazol-1-yl-benzyl)-piperidin-4-yl]-1-oxazol-2-yl-butan-1-one] | 84 nM | 1500 nM |
| O=C(CCCC1CCN(Cc2cccc(Br)c2)CC1)c1ncco1 [Example 90, 4-[1-(3-Bromo-benzyl)-piperidin-4-yl]-1-oxazol-2-yl-butan-1-one] | 10 nM | 118 nM |
| CC(C)CCC(=O)N1CCC(CCCC(=O)c2ncco2)CC1 [Example 51, 4-Methyl-1-[4-(4-oxazol-2-yl-4-oxo-butyl)-piperidin-1-yl]-pentan-1-one] | 230 nM | 635 nM |
| O=C(CCCC1CCN(Cc2ccc(-c3ccco3)nc2)CC1)c1ncco1 [Example 109, 4-[1-(6-Furan-2-yl-pyridin-3-ylmethyl)-piperidin-4-yl]-1-oxazol-2-yl-butan-1-one] | 55 nM | 528 nM |
| CCOC(=O)N1CCC(CCCC(=O)c2ncco2)CC1 [Example 64, 4-(4-Oxazol-2-yl-4-oxo-butyl)-piperidine-1-carboxylic acid ethyl ester] | 6 nM | 14 nM |
| COc1cccc(-c2ccc(CN3CCC(CCCC(=O)c4ncco4)CC3)cn2)c1 [Example 104, 4-{1-[6-(3-Methoxy-phenyl)-pyridin-3-ylmethyl]-piperidin-4-yl}-1-oxazol-2-yl-butan-1-one] | 4 nM | 48 nM |
| CCCCS(=O)(=O)N1CCC(CCCC(=O)c2ncco2)CC1 [Example 58, 4-[1-(Butane-1-sulfonyl)-piperidin-4-yl]-1-oxazol-2-yl-butan-1-one] | 60 nM | 720 nM |
| O=C(CCCC1CCN(C(=O)COc2ccccc2)CC1)c1ncco1 [Example 33, 1-Oxazol-2-yl-4-[1-(2-phenoxy-acetyl)-piperidin-4-yl]-butan-1-one] | 848 nM | 889 nM |
| CC(C)c1ccc(CN2CCC(CCCC(=O)c3ncco3)CC2)cn1 [Example 132, 4-[1-(6-Isopropyl-pyridin-3-ylmethyl)-piperidin-4-yl]-1-oxazol-2-yl-butan-1-one] | 52 nM | 950 nM |
| O=C(CCCC1CCN(Cc2ccco2)CC1)c1ncco1 [Example 118, 4-(1-Furan-2-ylmethyl-piperidin-4-yl)-1-oxazol-2-yl-butan-1-one] | 354 nM | 935 nM |
| O=C(CCCC1CCN(C(=O)CC2CCCC2)CC1)c1ncco1 [Example 48, 4-[1-(2-Cyclopentyl-acetyl)-piperidin-4-yl]-1-oxazol-2-yl-butan-1-one] | 100 nM | 216 nM |
| CCCCCCCCCN1CCC(CCCC(=O)c2ncco2)CC1 [Example 127, 4-(1-Nonyl-Piperidin-4-yl)-1-oxazol-2-yl-butan-1-one] | 8 nM | 57 nM |
| O=C(CCCC1CCN(Cc2cccc(Oc3ccccc3)c2)CC1)c1ncco1 [Example 2, 1-Oxazol-2-yl-4-[1-(3-phenoxy-benzyl)-piperidin-4-yl]-butan-1-one] | 0.4 nM | 4.7 nM |
| Cc1ccc(S(=O)(=O)N2CCC(CCCC(=O)c3ncc(-c4cccc(C(=O)O)n4)o3)CC2)cc1 [Example 151, 6-(2-{4-[1-(Toluene-4-sulfonyl)-piperidin-4-yl]-butyryl}-oxazol-5-yl)-pyridine-2-carboxylic acid trifluoroacetic acid salt] | 21 nM | 25 nM |
| O=C(CCCC1CCN(Cc2ccc(-c3ccccc3)c(F)c2)CC1)c1ncco1 [Example 138, 4-[1-(2-Fluoro-biphenyl-4-ylmethyl)-piperidin-4-yl]-1-oxazol-2-yl-butan-1-one] | 71 nM | 113 nM |
| O=C(CCCC1CCN(C(=O)Cc2ccc(Cl)cc2)CC1)c1ncco1 [Example 40, 4-{1-[2-(4-Chloro-phenyl)-acetyl]-piperidin-4-yl}1-oxazol-2-yl-butan-1-one] | 43 nM | 75 nM |
